Results on six molecules are retold here after patent US8618075B2, “Certain compounds, compositions and methods” (Eisai Inc., priority 2007, dated 2013).

Each structure is given as a SMILES string.

A short description of series [1]: Stability in acid solution by 1H NMR spectroscopy. The note with it: D2O + one drop deuterated TFA, 27° C. The series is classed as physicochemical. The procedure:
Tetrahydrouridine (THU, 5 mg) is dissolved in D2O (0.75 mL). To this same sample is added one drop of deuterated TFA followed by an immediate ^1HNMR spectrum (FIG. 10). Even at this earliest time point, the peak at 5.4 ppm (˜10% conversion by integration) is indicative of the ring expansion to the TH-pyranose. After 4 hours, the TH-pyranose is more prevalent indicating about 60% conversion. At 72 hours, the conversion is almost entirely complete (>80%).
To this same sample is added one drop of deuterated TFA followed by an immediate ^1HNMR spectrum (FIG. 12). After the first time point, the only notable change is the epimerization of the aminal which is noted by the extra peaks at 5.92 and 5.93. After 4 hours and 72 hours (FIG. 13), there are no other notable changes in the spectra (D2O, 300 MHz, 27° C.).

Series [2] concerns L1210 mouse lymphoma model. The series is described as follows: Decitabine induced survival in the L1210 survival model. The class given is in vivo. The conditions noted are these: for Survival compared to vehicle control and CDA inhibitor alone: p<0.05; for Mean Liver wts. (g) ± SD / Mean Spleen wts. (g) ± SD: on autopsy; for % ILS (Increased Life Span): vs vehicle group. The procedure:
30 CD2F1 6-7 weeks old female mice are randomly separated into 6 groups:
L1210 Intravenous (Lv.) Injection: Prior to experiment, L1210 cells are passed at least 3 times in CD2F1 female mice. The mice are injected intraperitoneally (i.p.) with L1210 ascites one prior week to sacrifice using CO2. Each mouse is placed on its back, its belly surface is cleaned with alcohol wipes and a small incision is made into its peritoneal cavity. 2 ml of ice cold 2.1% bovine serum albumin (BSA) in saline is injected into the cavity. Fluid is withdrawn from the cavity, transferred with an 18G 3 cc syringe into a clean sterile tube, and kept on ice. The fluid is diluted 1:10 in 2.1% BSA in saline and one drop of zap-o-globin is added to 2 ml of diluted ascites. Diluted ascites (dilute 1:10 again) are counted on a hematocytomer and the number of cells/ml is calculated. A stock of ascites in BSA solution is diluted to 1×10^4 cells/0.1 ml. Mice are injected with 0.1 ml of cell solution with a 27G needle.
Decitabine is prepared at a 1 mg/ml stock in PBS and diluted appropriately to achieve a 0.01 and 0.02 mg/ml dosing solution.
Dosing Scheme: Decitabine is prepared fresh twice a day. All dose solutions are stored on ice while dosing. Mice are dosed i.p. or orally (p.o.) twice a day (8 hours apart) for 4 consecutive days.
Survival and Autopsy: Mice are observed for survival and weighed daily (Monday to Friday) for the duration of the study (30 days). Dead mice are autopsied and observed for the presence of tumors in organs. Tumor deaths are determined by liver weights greater than 1.6 g and spleen weights greater than 150 mg as per Covey et al., Eur. J. Cancer Oncol. 1985.

Series [3] relates to A2780 human ovarian cancer xenograft. Briefly: Gemcitabine-induced reduction of tumor volume in the mouse A2780 human ovarian cancer xenograft model. The class given is in vivo. The procedure: Female NCr nu/nu 5-6 week old mice are implanted subcutaneously with 30 to 60 mg tumor fragments. On day 11 when the tumors are approximately 200 mm^3, treatment starts as described in Table 5.
Tumor volume is followed throughout the experiment. Tumor volume is measured three times weekly. Tumor burden (mg=mm^3) is calculated from caliper measurements by the formula for the volume of a prolate ellipsoid (L×W^2)/2 where L and W are the respective orthogonal length and width measurements (mm).
The primary endpoints used to evaluate efficacy in the A2780 model are complete and partial tumor regressions, tumor growth delay and the number of tumor free survivors at the end of the study. A complete response (CR) is defined as a decrease in tumor size to an undetectable size (<50mm^3). A partial response (PR) is defined as >50% decrease in tumor mass form starting tumor size. A tumor that achieves a CR or PR during the study but starts to grow again is still considered a CR or PR. Tumor free survival (TFS) at the end of the study would be no detectable tumor (<50 mm^3) at study termination (day 74). Tumor growth delay (TGD) is defined in this experiment as the median number of days for the treatment group compared to the control group to reach 750 mm^3.
A general note: In xenograft studies the graft and the host belong to different species.

[4] abbreviates: CDA inhibitor plus decitabine 0.1 mg/kg.
Setting [5] is: 30 mg/kg Gemcitabine PO + Compound 1 10 mg/kg PO q3dx4.
The mark [6] stands for this setting: Group 2: Compound 1 10 mg/kg p.o. alone.
Setting [7] is: Group 2: Compound 1 10 mg/kg p.o. x2 for 4 days alone.
The mark [8] stands for this setting: Group 4: Compound 1 1 mg/kg + 0.1 mg/kg decitabine p.o.
Where [9] appears, read: Group 5: Compound 1 10 mg/kg + 0.1 mg/kg decitabine p.o.
[10] abbreviates: Group 3: 0.1 mg/kg decitabine p.o. alone.
[11] abbreviates: 10 mg/kg Gemcitabine PO q3dx4 alone.
Where [12] appears, read: 30 mg/kg Gemcitabine PO q3dx4 alone.

On to `O=C1N[C@H](O)CCN1C1O[C@H](CO)[C@@H](O)C1(F)F` (single isomer, unassigned) [Compound 1a, 2′2′-DiFluoro-TetraHydroUridine], for which the “Pyranose formation in acid” value in series [1] (up to 72 hours, only epimerization of the aminal noted) is listed as “no pyranose formation occurs”. For the same molecule, the “Extending survival compared to the lower doses” value in series [2] (10 mg/kg Compound 1a in combination with DAC) is reported as “more effective”. Also, the “Survival compared to vehicle control and CDA inhibitor alone” value in series [2] (setting [4]) was “live longer”.
With `O=C1NC(O)CCN1C1O[C@H](CO)[C@@H](O)C1(F)F` (some centres unmarked) [Compound 1, 2′2′-DiFluoro-TetraHydroUridine], the “TGD (tumor growth delay)” value is 0.4 days in series [3] (10 mg/kg Compound 1 PO q3dx4 alone, median days to reach 750 mm^3 vs control); 19.2 days in series [3] (10 mg/kg Gemcitabine PO + Compound 1 10 mg/kg PO q3dx4, p<0.05 vs 10 mg/kg Gem alone); greater than 57 days in series [3] (30 mg/kg Gemcitabine PO + Compound 1 10 mg/kg PO q3dx4, p<0.05 vs 30 mg/kg Gem alone). Moreover, the “Tumors displaying CR” value in series [3] (10 mg/kg Gemcitabine PO + Compound 1 10 mg/kg PO q3dx4) came to 75%. Further, in series [3] (setting [5]), the CR is recorded as 100%. Also, the “Incidence of TFS at day 74” value in series [3] (setting [5]) was determined as 50%. Besides, the “Mean Liver wts. (g) ± SD” value worked out at 1.99 ± 0.22 g in series [2] (setting [6]), 2.03 ± 0.08 g in series [2] (setting [8]) and 2.02 ± 0.27 g in series [2] (setting [9]). The “Mean Spleen wts. (g) ± SD” value in series [2] (setting [6]) came out at 0.39 ± 0.07 g; in series [2] (setting [8]), 0.29 ± 0.03 g; in series [2] (setting [9]), 0.29 ± 0.07 g. Moreover, the “Mean Survival (days) ± SD” value in series [2] (setting [7]) worked out at 7.40 ± 0.55 days; in series [2] (Group 4: Compound 1 1 mg/kg + 0.1 mg/kg decitabine p.o. x2 for 4 days), 12.8 ± 0.45 days; in series [2] (Group 5: Compound 1 10 mg/kg + 0.1 mg/kg decitabine p.o. x2 for 4 days), 14.2 ± 0.45 days. In addition, the “% ILS (Increased Life Span)” value in series [2] (setting [7]) came to 0.00%; in series [2] (setting [8]), 72.97%; in series [2] (setting [9]), 91.89%.
For `O=C1N[C@H](O)CCN1C1O[C@H](CO)[C@@H](O)[C@H]1F` (stereo partly drawn) [Compound 3a, 2′(S)-fluoro-2′deoxy-tetrahydrouridine], in series [2] (setting [4]), the “Survival compared to vehicle control and CDA inhibitor alone” value is on record as “live longer”.
With `Nc1ncn([C@H]2C[C@H](O)[C@@H](CO)O2)c(=O)n1` [Decitabine, 5-Aza-2′-deoxycytidine, reference compound], in series [2] (setting [10]), the “Mean Liver wts. (g) ± SD” value stood at 2.05 ± 0.17 g, the “Mean Spleen wts. (g) ± SD” value was determined as 0.33 ± 0.06 g and the “% ILS (Increased Life Span)” value is 43.24%. For the same molecule, the “Mean Survival (days) ± SD” value in series [2] (Group 3: 0.1 mg/kg decitabine p.o. x2 for 4 days alone) was 10.6 ± 0.56 days. The “Survival compared to vehicle control and CDA inhibitor alone” value in series [2] (decitabine 0.1 mg/kg alone) is recorded as “live longer”. Further, the “Efficacy (survival) compared to 0.1 mg/kg decitabine i.p.” value in series [2] (decitabine 0.1 mg/kg p.o., not significantly different, p=0.052) is “less effective”.
In the case of `Nc1ccn([C@@H]2O[C@H](CO)[C@@H](O)C2(F)F)c(=O)n1` [Gemcitabine, reference compound], in series [3] (setting [11]), the “Complete responses (CR)” value is “no CRs”, the “Partial responses (PR)” value is on record as “no” and the “Tumor free survivors (TFS) at day 74” value is recorded as “no”. For the same molecule, the “TGD (tumor growth delay)” value in series [3] (10 mg/kg Gemcitabine PO q3dx4 alone, not statistically significant) is 6.1 days. For the same molecule, in series [3] (30 mg/kg Gemcitabine PO q3dx4 (MTD) alone, p<0.05 vs untreated control), the “TGD (tumor growth delay)” value worked out at 22 days. Also, in series [3] (setting [12]), the CRs amounted to 63% and the “Tumor free survivors (TFS) at day 74” value is “no TFS”.
For `O=C1NC(O)CCN1[C@@H]1O[C@H](CO)[C@@H](O)[C@H]1O` (some centres unmarked) [THU, Tetrahydrouridine], the entries for the “Conversion to TH-pyranose” value in series [1] (after 4 hours) and in series [1] (at 72 hours) were “about 60%” and greater than 80%, respectively. Besides, in series [1] (immediate spectrum), the “Conversion to TH-pyranose (by integration)” value is roughly 10%.
